Tested on: Isolated Rat Bladder Strips
Assay: Inhibition of contractions in isolated rat bladder strips (KCl-enhanced contractile activity; smooth muscle relaxation)
Format: cell-based, Sprague-Dawley rats
Conditions: for IC50: isolated rat bladder strips, 15 mM additional KCl, 30 minute challenge, read-out: IC50 (50% inhibition of pre-drug contractile activity); for inhibition at 30 µM: read-out: Percent inhibition at 30 μM (I)
Description: The smooth muscle relaxing activity of the compounds of this invention was established in accordance with standard pharmaceutically accepted test procedures with representative compounds as follows:
Sprague-Dawley rats (150-200 g) are rendered unconscious by CO2 asphyxiation and then euthanized by cervical dislocation. The bladder is removed into warm (37 deg.C) physiological salt solution (PSS) of the following composition (mM): NaCl, 118.4; KCl, 4.7; CaCl2, 2.5; MgSO4, 4.7; H2 O, 1,2; NaHCO3, 24.9; KH2 PO4, 1,2; glucose, 11.1; EDTA, 0.023; gassed with […]; pH 7.4. The bladder is opened and then dut into strips 1-2 mm in width and 7-10 mm in length. The strips are subsequently suspended in a 10 mL tissue bath under an initial resting tension of 1.5 g. The strips are held in place by two surgical clips one of which is attached to a fixed hook while the other is attached to an isometric force transducer. […] The carbachol is then washed out and the tissue allowed to relax to its resting level of activity. Following a further 30 min period of recovery an additional 15 mM KCl are introduced into the tissue bath. This increase in KCl concentration results in a large increase in the amplitude of spontaneous contractions (and initiation of contractions in previously quiescent strips) superimposed upon a small increase in basal tone. Following stabilization of this enhanced level of contractile activity, incremental increases in the concentration of test compound or vehicle are introduced into the tissue bath. Contractile activity is measured for each compound or vehicle concentration during the last minute of a 30 minute challenge.
The isometric force developed by the bladder strips is measured using a […] to elicit 50% inhibition of pre-drug contractile activity (IC50 concentration) and is calculated from this concentration-response curve.

| SMILES | IC50 (0.5 h) [µM] | other results |
| --- | --- | --- |
| CC(C)(C)Nc1c(NCc2cccc(Cl)c2Cl)c(=O)c1=O [Example 100, 3-(t-Butylamino)-4-(2,3-dichloro-benzylamino)-cyclobut-3-ene-1,2-dione] | 1.24 ± 0.17 | – |
| CCC(C)(C)Nc1c(NCc2c(C)cc(C)cc2Cl)c(=O)c1=O [Example 40, 3-(2-Chloro-4,6-dimethyl-benzylamino)-4-(1,1-dimethyl-propylamino)-cyclobut-3-ene-1,2-dione] | 0.2 ± 0.08 | – |
| CC(C)(C)Nc1c(NCc2ccc(C#N)c(Cl)c2)c(=O)c1=O [Example 43, 4-[(2-tert-Butylamino-3,4-dioxo-cyclobut-1-enylamino)-methyl]-2-chloro-benzonitrile] | 1.1 ± 0.1 | – |
| CC(C)(C)Nc1c(NCc2ccc(F)cc2F)c(=O)c1=O [Example 18, 3-tert-Butylamino-4-(2,4-difluoro-benzylamino)-cyclobut-3-ene-1,2-dione] | 2.1 ± 0.9 | – |
| CCC(C)(C)Nc1c(NCc2cc(C)cc(C)c2)c(=O)c1=O [Example 87, 3-(3.5-Dimethyl-benzylamino)-4-(1,1-dimethyl-propylamino)-cyclobut-3-ene-1,2-dione] | – | inhibition at 30 µM (Rattus norvegicus): 13.6 ± 8.4% |
| Cc1ccc(CNc2c(NC(C)(C)C)c(=O)c2=O)cc1Cl [Example 90, 3-tert-Butylamino-4-(3-chloro-4-methyl-benzylamino)-cyclobut-3-ene-1,2-dione] | – | inhibition at 30 µM (Rattus norvegicus): 16.6 ± 3.6% |
| Cc1cc(C)c(CNc2c(N[C@H](C)C(C)(C)C)c(=O)c2=O)c(Cl)c1 [Example 38, 3-(2-Chloro-4,6-dimethyl-benzylamino)-4-(1,2,2-trimethyl-propylamino)-cyclobut-3-ene-1,2-dione] | – | percent contraction at 30 µM (Rattus norvegicus, 0.5 h, read-out: Percent contraction at 30 μM (C)): 200% |
| CC(C)(C)Nc1c(NCc2c(F)cccc2F)c(=O)c1=O [Example 19, 3-tert-Butylamino-4-(2,6-difluoro-benzylamino)-cyclobut-3-ene-1,2-dione] | 7.5 ± 4.5 | – |
| CCC(C)(C)Nc1c(NCc2cc(Cl)ccc2Cl)c(=O)c1=O [Example 83, 3-(2.5-Dichloro-benzylamino)-4-(1,1-dimethyl-propylamino)-cyclobut-3-ene-1,2-dione] | 0.81 ± 0.32 | – |
| COc1cccc(CNc2c(NC(C)(C)C)c(=O)c2=O)c1OC [Example 20, 3-tert-Butylamino-4-(2,3-dimethoxy-benzylamino)-cyclobut-3-ene-1,2-dione] | 8.6 ± 3.5 | – |
| CCC(C)(C)Nc1c(NCc2ccc(C#N)c(Cl)c2)c(=O)c1=O [Example 44, 2-Chloro-4-{[2-(1,1-dimethyl-propylamino]-3,4-dioxo-cyclobut-1-enylamino)-methyl}-benzonitrile] | 0.26 ± 0.015 | – |
| Cc1cc(Br)cc(C)c1CNc1c(N[C@H](C)C(C)(C)C)c(=O)c1=O [Example 35, 3-(4-Bromo-2,6-dimethyl-benzylamino)-4-(1,2,2-trimethyl-propylamino)-cyclobut-3-ene-1,2-dione] | 8.9 ± 3 | – |

More lines, in order of falling IC50 (0.5 h), values ahead:

| IC50 (0.5 h) [µM] | SMILES | other results |
| --- | --- | --- |
| 6.5 ± 3.6 | CC(C)(C)Nc1c(NCc2cc(F)cc(C(F)(F)F)c2)c(=O)c1=O [Example 72, 3-tert-Butylamino-4-(3-fluoro-5-trifluoromethyl-benzylamino)-cyclobut-3-ene-1,2-dione] | – |
| 5.9 ± 1.8 | Cc1cccc(C)c1CNc1c(NC(C)(C)C)c(=O)c1=O [Example 52, 3-tert-Butylamino-4-(2,6-dimethyl-benzylamino)-cyclobut-3-ene-1,2-dione] | – |
| 5.4 ± 2.1 | C[C@@H](Nc1c(NCc2ccc(F)c(Cl)c2)c(=O)c1=O)C(C)(C)C [Example 69, 3-(3-Chloro-4-fluoro-benzylamino)-4-(1,2,2-trimethyl-propylamino)-cyclobut-3-ene-1,2-dione] | – |
| 2.7 ± 0.3 | Cc1cccc(CNc2c(NC(C)(C)C)c(=O)c2=O)c1C [Example 23, 3-tert-Butylamino-4-(2,3-dimethyl-benzylamino)-cyclobut-3-ene-1,2-dione] | – |
| 0.53 ± 0.23 | CCC(C)(C)Nc1c(NCc2ccc(C)cc2C)c(=O)c1=O [Example 79, 3-(2.4-Dimethyl-benzylamino)-4-(1,1-dimethyl-propylamino)-cyclobut-3-ene-1,2-dione] | – |
